The supplement of paper PMC10307832

How the values were obtained:
Test in all cases: relative viability (nuclei count vs DMSO), 5 days (fraction); higher = more cells survive
HCC-366 = test system: HCC-366
Procedure, shortened: (§1)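 Medians of duplicate plates are given as relative viability. That measure is the nuclei count in treated wells divided by the count in vehicle wells. Counts were taken on 4× images of lung cancer cell lines in 1536-well plates, 5 days after pin-tool dosing the day after seeding with one drug alone or a fixed anchor-drug dose plus five library-drug doses (not always all listed) in √10 steps.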

NCI-H1651 = test system: NCI-H1651
Procedure, shortened: as §1

NCI-H1650 = test system: NCI-H1650
Procedure, shortened: as §1

BEN = test system: BEN
Procedure, shortened: as §1

NCI-H1437 = test system: NCI-H1437
Procedure, shortened: as §1

NCI-H460 = test system: NCI-H460
Procedure, shortened: as §1

LOU-NH91 = test system: LOU-NH91
Procedure, shortened: as §1

NCI-H1975 = test system: NCI-H1975
Procedure, shortened: as §1

NCI-H1755 = test system: NCI-H1755
Procedure, shortened: as §1

CAL-12T = test system: CAL-12T
Procedure, shortened: as §1

NCI-H1734 = test system: NCI-H1734
Procedure, shortened: as §1

NCI-H2342 = test system: NCI-H2342
Procedure, shortened: as §1

NCI-H2023 = test system: NCI-H2023
Procedure, shortened: as §1

NCI-H1395 = test system: NCI-H1395
Procedure, shortened: as §1

HCC-44 = test system: HCC-44
Procedure, shortened: as §1

NCI-H441 = test system: NCI-H441
Procedure, shortened: as §1

EKVX = test system: EKVX
Procedure, shortened: as §1

NCI-H1355 = test system: NCI-H1355
Procedure, shortened: as §1

LU99A = test system: LU99A
Procedure, shortened: as §1

NCI-H2085 = test system: NCI-H2085
Procedure, shortened: as §1

NCI-H838 = test system: NCI-H838
Procedure, shortened: as §1

NCI-H358 = test system: NCI-H358
Procedure, shortened: as §1

CC1(C)CCC(c2ccc(Cl)cc2)=C(CN2CCN(c3ccc(C(=O)NS(=O)(=O)c4ccc(N[C@H](CCN5CCOCC5)CSc5ccccc5)c(S(=O)(=O)C(F)(F)F)c4)cc3)CC2)C1 [Navitoclax] + CC(=O)c1c(C)c2cnc(Nc3ccc(N4CCNCC4)cn3)nc2n(C2CCCC2)c1=O [Palbociclib] (partner 0.5 µM)
relative viability (HCC-366; first compound 0.005 µM): 0.355
relative viability (HCC-366; first compound 0.01581 µM): 0.48
relative viability (HCC-366; first compound 0.1581 µM): 0.35
relative viability (HCC-366; first compound 0.5 µM): 0.34
relative viability (NCI-H1651; first compound 0.005 µM): 0.513
relative viability (NCI-H1651; first compound 0.01581 µM): 0.552
relative viability (NCI-H1651; first compound 0.05 µM): 0.494
relative viability (NCI-H1651; first compound 0.1581 µM): 0.513
relative viability (NCI-H1651; first compound 0.5 µM): 0.54
relative viability (NCI-H1650; first compound 0.005 µM): 0.385
relative viability (NCI-H1650; first compound 0.01581 µM): 0.456
relative viability (NCI-H1650; first compound 0.05 µM): 0.315
relative viability (NCI-H1650; first compound 0.1581 µM): 0.346
relative viability (NCI-H1650; first compound 0.5 µM): 0.316
relative viability (BEN; first compound 0.005 µM): 0.475
relative viability (BEN; first compound 0.01581 µM): 0.525
relative viability (BEN; first compound 0.05 µM): 0.462
relative viability (BEN; first compound 0.1581 µM): 0.399
relative viability (BEN; first compound 0.5 µM): 0.268
relative viability (NCI-H1437; first compound 0.005 µM): 0.295
relative viability (NCI-H1437; first compound 0.01581 µM): 0.317
relative viability (NCI-H1437; first compound 0.05 µM): 0.2
relative viability (NCI-H1437; first compound 0.1581 µM): 0.291
relative viability (NCI-H1437; first compound 0.5 µM): 0.308
relative viability (NCI-H460; first compound 0.005 µM): 0.167
relative viability (NCI-H460; first compound 0.01581 µM): 0.159
relative viability (NCI-H460; first compound 0.05 µM): 0.0945
relative viability (NCI-H460; first compound 0.1581 µM): 0.217
relative viability (NCI-H460; first compound 0.5 µM): 0.13
relative viability (LOU-NH91; first compound 0.005 µM): 0.53
relative viability (LOU-NH91; first compound 0.01581 µM): 0.523
relative viability (LOU-NH91; first compound 0.05 µM): 0.441
relative viability (LOU-NH91; first compound 0.1581 µM): 0.477
relative viability (LOU-NH91; first compound 0.5 µM): 0.409
relative viability (NCI-H1975; first compound 0.005 µM): 0.533
relative viability (NCI-H1975; first compound 0.01581 µM): 0.661
relative viability (NCI-H1975; first compound 0.05 µM): 0.437
relative viability (NCI-H1975; first compound 0.1581 µM): 0.532
relative viability (NCI-H1975; first compound 0.5 µM): 0.585
relative viability (NCI-H1755; first compound 0.005 µM): 0.433
relative viability (NCI-H1755; first compound 0.01581 µM): 0.482
relative viability (NCI-H1755; first compound 0.05 µM): 0.436
relative viability (NCI-H1755; first compound 0.1581 µM): 0.477
relative viability (NCI-H1755; first compound 0.5 µM): 0.488
relative viability (CAL-12T; first compound 0.005 µM): 0.4
relative viability (CAL-12T; first compound 0.01581 µM): 0.445
relative viability (CAL-12T; first compound 0.05 µM): 0.409
relative viability (CAL-12T; first compound 0.1581 µM): 0.496
relative viability (CAL-12T; first compound 0.5 µM): 0.405
relative viability (NCI-H1734; first compound 0.005 µM): 0.339
relative viability (NCI-H1734; first compound 0.01581 µM): 0.374
relative viability (NCI-H1734; first compound 0.1581 µM): 0.296
relative viability (NCI-H1734; first compound 0.5 µM): 0.367
relative viability (NCI-H2342; first compound 0.005 µM): 0.611
relative viability (NCI-H2342; first compound 0.01581 µM): 0.531
relative viability (NCI-H2342; first compound 0.05 µM): 0.541
relative viability (NCI-H2342; first compound 0.1581 µM): 0.477
relative viability (NCI-H2342; first compound 0.5 µM): 0.629
relative viability (NCI-H2023; first compound 0.005 µM): 0.421
relative viability (NCI-H2023; first compound 0.01581 µM): 0.427
relative viability (NCI-H2023; first compound 0.05 µM): 0.384
relative viability (NCI-H2023; first compound 0.1581 µM): 0.401
relative viability (NCI-H2023; first compound 0.5 µM): 0.439
relative viability (NCI-H1395; first compound 0.005 µM): 0.617
relative viability (NCI-H1395; first compound 0.01581 µM): 0.664
relative viability (NCI-H1395; first compound 0.05 µM): 0.674
relative viability (NCI-H1395; first compound 0.1581 µM): 0.653
relative viability (NCI-H1395; first compound 0.5 µM): 0.583
relative viability (HCC-44; first compound 0.005 µM): 0.968
relative viability (HCC-44; first compound 0.01581 µM): 0.919
relative viability (HCC-44; first compound 0.05 µM): 0.947
relative viability (HCC-44; first compound 0.1581 µM): 0.893
relative viability (HCC-44; first compound 0.5 µM): 0.956
relative viability (NCI-H441; first compound 0.005 µM): 0.225
relative viability (NCI-H441; first compound 0.01581 µM): 0.268
relative viability (NCI-H441; first compound 0.05 µM): 0.192
relative viability (NCI-H441; first compound 0.1581 µM): 0.216
relative viability (NCI-H441; first compound 0.5 µM): 0.284
relative viability (EKVX; first compound 0.005 µM): 0.44
relative viability (EKVX; first compound 0.01581 µM): 0.405
relative viability (EKVX; first compound 0.05 µM): 0.422
relative viability (EKVX; first compound 0.1581 µM): 0.403
relative viability (EKVX; first compound 0.5 µM): 0.388
relative viability (NCI-H1355; first compound 0.005 µM): 0.381
relative viability (NCI-H1355; first compound 0.01581 µM): 0.438
relative viability (NCI-H1355; first compound 0.05 µM): 0.429
relative viability (NCI-H1355; first compound 0.1581 µM): 0.385
relative viability (NCI-H1355; first compound 0.5 µM): 0.409
relative viability (LU99A; first compound 0.005 µM): 0.392
relative viability (LU99A; first compound 0.01581 µM): 0.433
relative viability (LU99A; first compound 0.1581 µM): 0.437
relative viability (LU99A; first compound 0.5 µM): 0.48
relative viability (NCI-H2085; first compound 0.005 µM): 0.45
relative viability (NCI-H2085; first compound 0.01581 µM): 0.456
relative viability (NCI-H2085; first compound 0.05 µM): 0.379
relative viability (NCI-H2085; first compound 0.1581 µM): 0.482
relative viability (NCI-H2085; first compound 0.5 µM): 0.502
relative viability (NCI-H838; first compound 0.005 µM): 0.193
relative viability (NCI-H838; first compound 0.01581 µM): 0.253
relative viability (NCI-H838; first compound 0.05 µM): 0.177
relative viability (NCI-H838; first compound 0.1581 µM): 0.209
relative viability (NCI-H838; first compound 0.5 µM): 0.224
relative viability (NCI-H358; first compound 0.005 µM): 0.128
relative viability (NCI-H358; first compound 0.01581 µM): 0.147
relative viability (NCI-H358; first compound 0.05 µM): 0.142
relative viability (NCI-H358; first compound 0.1581 µM): 0.121
relative viability (NCI-H358; first compound 0.5 µM): 0.134
